We go through 24 molecules from patent publication US9650369B2, “Anti-migration and anti-invasion thiazole analogs for treatment of cellular proliferative disease” (XAVIER UNIVERSITY OF LOUISIANA, priority 2012, dated 2017).

pIC50: −log10 of the molar value. Entries after “also recorded” stand apart in the source; their conditions may differ. Like-named read-outs stand apart in the source and are kept apart here.

Assay type in all cases: cell-based
Data set [1] relates to MDA-MB-231 breast cancer cells. The data set can be described thus: clonogenic assay (colony formation), MDA-MB-231. The conditions noted are these: for activity at 10 µM / inhibition at 10 µM: Homo sapiens, 336 h; for activity at 10 µM / Effect on cell proliferation (colony formation) (% of vehicle control): MDA-MB-231, 10 μM analogs, 14 days; for activity at 10 µM: read-out: Effect on cell proliferation (colony formation) (% of vehicle control); for cytotoxicity (in words) / inhibition at 10 µM: MDA-MB-231, 10 μM, two weeks. As for the experimental part:
(§1) To determine if these analogs have anti-migration and anti-invasion activities in different cancer cell lines, transwell migration assays were performed using MDA-MB-231 breast cancer cells (FIG. 3) and HeLa cells (FIG. 5) for all synthetic analogs. […] Next, clonogenic assays were performed on the breast cancer cells treated with the compounds to rule out any indirect effect on cell migration due to cytotoxicity (FIG. 4). MDA-MB-231 cells were allowed to grow for 14 days in six-well plates in the presence or absence of the synthetic compounds at 10 μM.
To rule out any indirect effect on cell migration due to cytotoxicity, clonogenic assays were performed on the breast cancer cells treated with the compounds. MDA-MB-231 cells were allowed to grow for 14 days in six-well plates in the presence or absence of the synthetic compounds at 10 μM. […] For example, analog 3g blocked both cell migration (81.4%) and colony formation (42.7%). For these analogs cytotoxity may have partially contributed to their overall anti-migration effect. The cell toxicity data for all analogs are listed in Table 1 along with anti-migration data for comparison.

Data set [2] concerns MDA-MB-231 breast cancer cells. The data set can be described thus: transwell migration assay, MDA-MB-231. The conditions noted are these: for inhibition at 10 µM: MDA-MB-231, MDA-MB-231, 10 μM, read-out: inhibition of cell migration; for pIC50: transwell migration of MDA-MB-231 cells, read-out: IC50 (anti-migration). As for the experimental part:
as §1
To determine the effects of the synthesized mackroketone analogs on cancer cell migration, we performed transwell migration assay on each compound using an invasive and metastatic breast cancer cell line, MDA-MB-231. When cells were seeded at a density of 2.5×10^4 in media free of serum in the upper chamber but containing 5% FBS in the lower chamber, their ability to migrate in the presence and absence of 10 μM analogs were measured by counting the total number of cells in the lower chamber after 24 hrs.

Data set [3] deals with HeLa cells. The data set can be described thus: colony formation, HeLa. An excerpt: (§2) Based on the potent effects of synthetic thiazole analogs in blocking migration of MDA-MB-231 cells, ten analogs with high anti-migration activity but low or negligible cytotoxicity were selected to test their anti-migration activity in another metastatic cell line, HeLa. […] On the other hand, the analog 5i was not toxic to 231 cells, but it suppressed the clonogenic capability of HeLa cells by 45%. […] Thus 5k may be further evaluated for its potential as an anti-migration and anti-metastatic agent.

Data set [4] has as its system A549 non small cell lung cancer cells. The experiment in a line: migration assay, A549. The conditions noted are these: A549, 10 μM.
Data set [5] relates to fascin in MDA-MB-231 cells. The data set can be described thus: fascin localization by immunofluorescence microscopy. An excerpt: Co-localization of f-actin and fascin appears as white pixels.
To further probe for a possible role of fascin in the reduction of actin-rich membrane protrusions, we determined the localization of fascin by immunofluorescence microscopy.

In data set [6] the test system is HeLa cells. The experiment in a line: transwell migration, HeLa. The conditions noted are these: Homo sapiens. As for the experimental part:
as §1, §2

Data set [7] relates to f-actin in membrane protrusions of MDA-MB-231 cells. The data set can be described thus: f-actin staining of actin-rich membrane protrusions (fluorescent microscopy). To be noted: MDA-MB-231, 10 μM, serum stimulated 2 hours; p<0.01. An excerpt:
An essential component of migration is protrusion of the cell membrane, which is driven by actin polymerization. […] See Chen, L.; Yang. S.; Jakoncic, J.; Zhang, J. J.; Huang, X. Y. Migrastatin analogues target fascin to block tumour metastasis. Nature 2010; 464:1062-1066. Erratum in: Nature. 2011; 476:240; Hashimoto, Y., D. J. Kim, and J. C. Adams. The roles of fascins in health and disease. J. Pathol. 2011; 224:289-300; and Jayo, A., and M. Parsons. Fascin: a key regulator of cytoskeletal dynamics. Int. J. Biochem. Cell Biol. 2010; 42:1614-1617. […] See Chen, 2010. Thus, we tested the hypothesis that compound 5k interferes with f-actin in membrane protrusions associated with cell motility. MDA-MB-231 cells were serum starved −/+10 μM 5k, then stimulated with serum for 2 hours to induce actin-rich membrane protrusions, which were analyzed by fluorescent microscopy.

Data set [8] deals with MDA-MB-231 breast cancer cells. The experiment in a line: matrigel invasion assay, MDA-MB-231. The conditions noted are these: MDA-MB-231, matrigel. An excerpt: To determine if the synthetic thiazole analogs block invasion of metastatic cancer cells we performed matrigel invasion assays of MDA-MB-231 cells treated with 10 selected analogs.

Regarding `Cc1ccc(-c2csc(N)n2)c(C)c1` [Compound 2b, 2-Amino-4-(2,4-dimethylphenyl)thiazole], in data set [1], the activity at 10 µM came to 111% and the “cytotoxicity (in words)” value was “no apparent cell toxicity”. Moreover, the inhibition at 10 µM in data set [2] (Homo sapiens) was over 50%.

As to `O=C(Nc1nc(-c2ccccc2)cs1)c1cccs1` [Compound 3a, N-(4-Phenylthiazol-2-yl)thiophene-2-carboxamide], the activity at 10 µM in data set [1] worked out at 85.9%. Besides, in data set [2] (Homo sapiens), the pIC50 was 5.60.

Turning to `COc1ccc(C(=O)Nc2nc(-c3ccccc3)cs2)cc1OC` [Compound 3g, 3,4-Dimethoxy-N-(4-phenylthiazol-2-yl)benzamide], in data set [1], the activity at 10 µM was 57.3% and the inhibition at 10 µM amounted to 42.7%. The inhibition at 10 µM in data set [2] (Homo sapiens) was over 80%.

`O=C(Nc1nc(-c2ccccc2)cs1)c1ccncc1` [Compound 3i, N-(4-Phenylthiazol-2-yl)isonicotinamide]: in data set [1], the activity at 10 µM was found to be 95.5%. Moreover, in data set [2] (Homo sapiens), the pIC50 is 5.54.

Take `O=C(Nc1nc(-c2ccccc2)cs1)c1ccccc1` [Compound 3j, N-(4-Phenylthiazol-2-yl)benzamide]: the activity at 10 µM in data set [1] was found to be 105%. Moreover, the pIC50 in data set [2] (Homo sapiens) was 5.89.

`CCCCCCCCCCCC(=O)Nc1nc(-c2ccccc2)cs1` [Compound 3n, N-(4-Phenylthiazol-2-yl)dodecanamide]: in data set [1], the activity at 10 µM was 71.5%, the inhibition at 10 µM worked out at 30% and the “cytotoxicity (in words)” value was “no apparent cell toxicity”. Moreover, in the data set with HeLa cells [3], the “cytotoxicity (in words)” value is “no apparent cytotoxicity”. Also, in data set [2] (Homo sapiens), the inhibition at 10 µM is over 50% and the pIC50 is 6.00.

On to `Cc1ccc(-c2csc(NC(=O)c3ccccc3)n2)c(C)c1` [Compound 3o, N-(4-(2,4-dimethylphenyl)thiazol-2-yl)benzamide], for which, in data set [1], the activity at 10 µM is 85%. Also, the pIC50 in data set [2] (Homo sapiens) is 6.08.

With `CCN(C(=O)c1ccco1)c1nc(-c2ccccc2)cs1` [Compound 4d, N-Ethyl-N-(4-phenylthiazol-2-yl)furan-2-carboxamide], the activity at 10 µM in data set [1] was 96.5%.

`CN(C(=O)c1ccccc1)c1nc(-c2ccccc2)cs1` [Compound 4e, N-Methyl-N-(4-phenylthiazol-2-yl)benzamide]: in data set [1], the activity at 10 µM was found to be 123% and the “cytotoxicity (in words)” value is “no apparent cell toxicity”. Also, in data set [2] (Homo sapiens), the inhibition at 10 µM is over 50% and the pIC50 was 6.44.

With `CN(C(=O)C1CCCC1)c1nc(-c2ccccc2)cs1` [Compound 4f, N-Methyl-N-(4-phenylthiazol-2-yl)cyclopentanecarboxamide], the activity at 10 µM in data set [1] is 132%.

`CN(C(=O)C1CCCCC1)c1nc(-c2ccccc2)cs1` [Compound 4g, N-Methyl-N-(4-phenylthiazol-2-yl)cyclohexanecarboxamide]: the activity at 10 µM in data set [1] was 97.5%.

Take `CCCCCC(=O)N(C)c1nc(-c2ccccc2)cs1` [Compound 4h, N-Methyl-N-(4-phenylthiazol-2-yl)hexanamide]: the activity at 10 µM in data set [1] amounted to 128%.

With `CCCCCCCCCCCC(=O)N(C)c1nc(-c2ccccc2)cs1` [Compound 4i, N-Methyl-N-(4-phenylthiazol-2-yl)dodecanamide], the activity at 10 µM in data set [1] was 111%.

As for `Cn1c(-c2ccccc2)cs/c1=N/C(=O)c1cccs1` [Compound 5a, N-(3-Methyl-4-phenylthiazol-2(3H)-yliene)thiophene-2-carboxamide], the activity at 10 µM in data set [1] is 85%.

For `Cn1c(-c2ccccc2)cs/c1=N/C(=O)c1ccco1` [Compound 5b, N-(3-Methyl-4-phenylthiazol-2(3H)-yliene)furan-2-carboxamide], the activity at 10 µM in data set [1] was found to be 107%.

`Cn1c(-c2ccccc2)csc1=NC(=O)c1ccc(Cl)cc1` [Compound 5c, 4-Chloro-N-(3-methyl-4-phenylthiazol-2(3H)-ylidene)benzamide]: the activity at 10 µM in data set [1] was determined as 98.2%. Besides, the pIC50 in data set [2] (Homo sapiens) is 5.95.

`Cn1c(-c2ccccc2)cs/c1=N/C(=O)c1ccc(Br)cc1` [Compound 5d, 4-Bromo-N-(3-methyl-4-phenylthiazol-2(3H)-yliene)benzamide]: the activity at 10 µM in data set [1] amounted to 63.8%.

With `COc1cc(C(=O)/N=c2/scc(-c3ccccc3)n2C)cc(OC)c1OC` [Compound 5e, 3,4,5-Trimethoxy-N-(3-methyl-4-phenylthiazol-2(3H)-yliene)benzamide], the activity at 10 µM in data set [1] is 75.4%.

Consider `Cc1ccc(-c2cs/c(=N/C(=O)c3cccs3)n2C)c(C)c1` [Compound 5f, N-(4-(2,4-dimethylphenyl)-3-methylthiazol-2(3H)-yliene)thiophene-2-carboxamide], for which the activity at 10 µM in data set [1] came to 102%.

`COc1ccc(C(=O)N=c2scc(-c3ccccc3)n2C)cc1OC` [Compound 5g, 3,4-Dimethoxy-N-(3-methyl-4-phenylthiazol-2(3H)-yliene)benzamide]: the “Effect on cell proliferation (colony formation) (% of vehicle control)” value in data set [1] was found to be 40.9%.

With `Cn1c(-c2ccccc2)cs/c1=N/C(=O)c1cccnc1` [Compound 5h, N-(3-Methyl-4-phenylthiazol-2(3H)-yliene)nicotinamide], the activity at 10 µM in data set [1] worked out at 112%.

As for `CCn1c(-c2ccccc2)csc1=NC(=O)c1cccs1` [Compound 5i, N-(3-Ethyl-4-phenylthiazol-2(3H)-yliene)thiophene-2-carboxamide], in data set [1], the “Effect on cell proliferation (colony formation) (% of vehicle control)” value is 97.7% and the “cytotoxicity (in words)” value was “not toxic”. The “suppression of clonogenic capability” value with HeLa cells [3] worked out at 45%. In data set [2], the pIC50 was 5.68.

With `Cn1c(-c2ccccc2)cs/c1=N/C(=O)c1ccccc1` [Compound 5j, N-(3-Methyl-4-phenylthiazol-2(3H)-yliene)benzamide], in data set [1], the activity at 10 µM was 25.2%, the inhibition at 10 µM came out at 75% and the “cytotoxicity (in words)” value is on record as “strong inhibitor of cell proliferation”. In addition, in the data set with HeLa cells [3], the “cytotoxicity (in words)” value is “strong inhibitor of cell proliferation”. Also, the pIC50 in data set [2] (Homo sapiens) was 6.72.

As to `Cc1ccc(-c2cs/c(=N/C(=O)c3ccccc3)n2C)c(C)c1` [Compound 5k, N-(4-(2,4-Dimethylphenyl)-3-methylthiazol-2(3H)-yliene)-benzamide], in data set [1], the activity at 10 µM came out at 121%. The “cytotoxicity (in words)” value in data set [1] is recorded as “no apparent cell toxicity; also recorded: no apparent cytotoxity”; in the data set on HeLa cells [3], “no apparent cytotoxity”. In data set [4], the “loss of migratory capacity” value is listed as about 80%. Moreover, in data set [5], the “localization of fascin in actin-rich membrane regions (in words)” value is given as “notably missing from the actin-rich membrane regions”. In the data set on HeLa cells [6], this molecule gave an inhibition at 10 µM of over 85%. For the same molecule, the “reduction in f-actin intensity” value in data set [7] was found to be 55%. In data set [8], the “blocking cell invasion (in words)” value was “most potent compound in blocking cell invasion”. Moreover, the pIC50 in data set [2] (Homo sapiens) was 6.75.
